Measurements as given in patent US8513307B2, “N-phenylacetamide inhibitors of the enzyme SOAT-1 and pharmaceutical/cosmetic compositions comprised thereof” (Galderma Research & Development, priority 2007, dated 2013).
pIC50: −log10 of the molar value.

molecular target: T1, enzyme ACAT-1 (Homo sapiens, UniProt P35610); assay: primary enzymatic test HepG2: NBD-cholesterol fluorescence test of inhibitory action on ACAT-1 (SOAT-1); format: cell-based; conditions: HepG2 cells, NBD-cholesterol 1 μg/ml, incubation 6 h at 37° C., fluorescence excitation 490 nm, emission 540 nm
T1 construct: endogenous in cells; host or cells: HepG2
T1 sequence (P35610 1-550): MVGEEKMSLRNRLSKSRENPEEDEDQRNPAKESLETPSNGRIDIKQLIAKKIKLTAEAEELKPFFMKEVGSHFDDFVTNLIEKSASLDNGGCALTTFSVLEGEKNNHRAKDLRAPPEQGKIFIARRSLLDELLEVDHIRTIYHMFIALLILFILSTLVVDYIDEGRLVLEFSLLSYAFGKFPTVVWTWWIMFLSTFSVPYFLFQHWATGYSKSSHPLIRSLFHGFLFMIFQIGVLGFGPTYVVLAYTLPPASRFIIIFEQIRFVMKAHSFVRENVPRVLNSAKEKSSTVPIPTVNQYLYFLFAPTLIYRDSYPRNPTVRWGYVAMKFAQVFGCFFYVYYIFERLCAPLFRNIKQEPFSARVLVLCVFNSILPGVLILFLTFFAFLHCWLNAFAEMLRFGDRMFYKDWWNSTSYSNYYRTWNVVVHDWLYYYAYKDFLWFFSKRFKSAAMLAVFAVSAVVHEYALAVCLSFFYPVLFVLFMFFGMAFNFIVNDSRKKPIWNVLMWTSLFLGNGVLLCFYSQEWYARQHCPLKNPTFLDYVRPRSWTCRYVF
Experimental: The compounds (I) according to the invention, as well as their pharmaceutically acceptable salts, solvates and/or hydrates, have inhibitory properties on the enzyme SOAT-1. This inhibitory activity on the enzyme SOAT-1 is measured according to a primary enzymatic test HepG2, as described in Example 16.
The compounds of formula (I) according to the invention were subjected to a test allowing their inhibitory action to be evaluated with respect to the enzyme ACAT-1 inspired by the following publication: “Identification of ACAT1- and ACAT2-specific inhibitors using a novel, cell-based fluorescence assay: individual ACAT uniqueness”, J. Lipid. Res (2004) vol 45, pages 378-386. The principle of this test is based on the employment of NBD-cholesterol, an analogue of cholesterol whose fluorescence depends on its environment. When this is present in a polar environment, it is weakly fluorescent although in a nonpolar environment it is strongly fluorescent. Free NBD-cholesterol locates itself in the cell membranes and is weakly fluorescent in this polar environment. When the NBD-cholesterol is esterified by ACAT, the ester of NBD-cholesterol locates itself in the nonpolar lipid droplets and is in that case strongly fluorescent.
The method below is applied: The HepG2 cells are incubated in the presence of NBD-cholesterol (1 μg/ml) and of the compound of formula (I) to be tested in black 96-well plates with a transparent base at a rate of 30 000 cells per well. After incubation for 6 h at 37° C., under 5% CO2, the medium is eliminated by turning over and the cells are washed with 2 times 100 μl of PBS. After addition of 50 μl of lysis buffer (NaPO4 10 mM, Igepal 1%), the plates are stirred for 5 min and read in fluorescence (excitation 490 nm, emission 540 nm) on a FUSION apparatus (Perkin-Elmer).

`CC(C)c1cccc(C(C)C)c1NC(=O)CN1CC2(CCCCC2)N(c2ccccc2)C1=O` [I.1, N-(2,6-Diisopropylphenyl)-2-(2-oxo-1-phenyl-1,3-diazaspiro[4.5]dec-3-yl)-acetamide] and `CCc1ccc(N2C(=O)N(CC(=O)Nc3c(C(C)C)cccc3C(C)C)CC23CCCCC3)cc1` [I.9, N-(2,6-Diisopropylphenyl)-2-[1-(4-ethylphenyl)-2-oxo-1,3-diazaspiro-[4.5]dec-3-yl]acetamide] are within 0.2 log units of each other in pIC50: 8.27 for the first, 8.15 for the second.

Going from `Cc1ccc(N2C3(CCCCC3)CN(CC(=O)Nc3c(C(C)C)cccc3C(C)C)S2(=O)=O)cc1` [I.5, N-(2,6-Diisopropylphenyl)-2-(2,2-dioxo-1-p-tolyl-2lambda*6*-thia-1,3-di-azaspiro[4.5]dec-3-yl)acetamide] to `CCC1(CC)CN(CC(=O)Nc2c(C(C)C)cccc2C(C)C)C(=O)N1c1ccc(C)cc1` [I.13, 2-(4,4-Diethyl-2-oxo-3-p-tolylimidazolidin-1-yl)-N-(2,6-diisopropylphenyl)-acetamide], the pIC50 rises from 8.49 to 9.05 (0.56 log units).
